Key:
Format in all cases: in vivo
[1] = system: Spodoptera eridania, 3rd instar larvae, southern armyworm; test: Southern armyworm 3rd instar test, dipped limabean leaf; settings: for ARMYWORM Day 3: rating at 3 days; for ARMYWORM Day 5: rating at 5 days
Procedure, shortened: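 Compound dissolved in 35% acetone/water at 10,000 ppm stock, diluted with water. Sieva limabean leaves dipped 3 s, dried, and exposed to ten 3rd instar larvae on damp filter paper. Mortality, reduced feeding and molting interference scored at 3 and 5 days on a rating scale.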

[2] = system: Tetranychus urticae (OP-resistant strain), 2-spotted spider mite; test: 2-spotted spider mite test, dipped infested limabean plants; set-up: key: 0: no effect; 10-25% kill; 26-35% kill; 36-45% kill; 46-55% kill; 56-65% kill; 66-75% kill; 76-85% kill; 86-99% kill; 9: 100% kill
Procedure, shortened: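 Mite-infested Sieva limabean plants (OP-resistant strain, ~100 mites per leaf, transferred ~2 h earlier) dipped 3 s with agitation in compound solution (10,000 ppm stock in 35% acetone/water, diluted with water). Mortality counted at 2 days; egg and nymph mortality assessed at 5 days; rated on a scale.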

[3] = system: Spodoptera eridania, 3rd instar larvae, southern armyworm; test: Southern armyworm systemic uptake (stem systemic) test; set-up: key: 0: no effect; 10-25% kill; 26-35% kill; 36-45% kill; 46-55% kill; 56-65% kill; 66-75% kill; 76-85% kill; 86-99% kill; 9: 100% kill; settings: cut stem in emulsion 3 days
[4] = system: Aphis fabae, mixed instar, bean aphid; test: Bean aphid spray test on nasturtium; set-up: key: 0: no effect; 10-25% kill; 26-35% kill; 36-45% kill; 46-55% kill; 56-65% kill; 66-75% kill; 76-85% kill; 86-99% kill; 9: 100% kill; settings: 100 ppm
Procedure, shortened: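 Compound dissolved at 10,000 ppm in 35% acetone/water, then water-diluted. Nasturtium plants (~5 cm) infested with 100-200 aphids one day before spraying to full coverage on a turntable; mortality estimated after 2 days on a rating scale.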

[5] = 10 ppm, adult mites, rating scale 0-9
[6] = 10 ppm, mite nymphs, rating scale 0-9
[7] = 300 ppm, mite eggs, rating scale 0-9
[8] = 300 ppm, mite nymphs, rating scale 0-9
[9] = 10 ppm, mite eggs, rating scale 0-9
[10] = 100 ppm, adult mites, rating scale 0-9
[11] = 100 ppm, mite eggs, rating scale 0-9
[12] = 300 ppm, adult mites, rating scale 0-9

SMILES: CN(C)C(=S)SCn1c(-c2ccc(Cl)cc2)c(C#N)c(Br)c1C(F)(F)F [Example 24]
- ARMYWORM Day 3 ([1]; 10 ppm): 9 (100% kill)
- ARMYWORM Day 5 ([1]; 10 ppm): 9 (100% kill)
- ARMYWORM Day 3 ([1]; 100 ppm): 9 (100% kill)
- ARMYWORM Day 5 ([1]; 100 ppm): 9 (100% kill)
- ARMYWORM Day 3 ([1]; 1000 ppm): 9 (100% kill)
- ARMYWORM Day 5 ([1]; 1000 ppm): 9 (100% kill)
- OP-RESISTANT MITES Adult ([2]; 10 ppm, mortality rating after 2 days): 9 (100% kill)
- OP-RESISTANT MITES Egg ([2]; 10 ppm, rating after 5 days): 0
- OP-RESISTANT MITES Nymph ([2]; 10 ppm, rating after 5 days): 0
- OP-RESISTANT MITES Adult ([2]; 100 ppm, mortality rating after 2 days): 9 (100% kill)
- OP-RESISTANT MITES Egg ([2]; 100 ppm, rating after 5 days): 9 (100% kill)
- OP-RESISTANT MITES Adult ([2]; 300 ppm, mortality rating after 2 days): 0
- OP-RESISTANT MITES Egg ([2]; 300 ppm, rating after 5 days): 9 (100% kill)
- ARMYWORM Stem Sys [3]: 0
- APHIDS ([4]; spray, mortality rating after 2 days): 7 (76-85% kill)

SMILES: CCOC(=S)SCn1c(Cl)c(C#N)c(Cl)c1-c1ccc(Cl)c(Cl)c1 [Example 37]
- ARMYWORM Day 3 ([1]; 10 ppm): 9 (100% kill)
- ARMYWORM Day 5 ([1]; 10 ppm): 9 (100% kill)
- ARMYWORM Day 3 ([1]; 100 ppm): 9 (100% kill)
- ARMYWORM Day 5 ([1]; 100 ppm): 9 (100% kill)
- ARMYWORM Day 3 ([1]; 1000 ppm): 9 (100% kill)
- ARMYWORM Day 5 ([1]; 1000 ppm): 9 (100% kill)
- OP-RESISTANT MITES Adult [2, 5]: 0
- OP-RESISTANT MITES Nymph [2, 6]: 4 (46-55% kill)
- OP-RESISTANT MITES Egg [2, 7]: 0
- OP-RESISTANT MITES Nymph [2, 8]: 0
- ARMYWORM Stem Sys [3]: 0
- APHIDS ([4]; rating scale 0-9): 0

SMILES: CCOC(=S)SCn1c(-c2ccc(Cl)cc2)c(C#N)c(Br)c1C(F)(F)F [Example 29]
- ARMYWORM Day 3 ([1]; 10 ppm): 9 (100% kill)
- ARMYWORM Day 5 ([1]; 10 ppm): 9 (100% kill)
- ARMYWORM Day 3 ([1]; 100 ppm): 9 (100% kill)
- ARMYWORM Day 5 ([1]; 100 ppm): 9 (100% kill)
- ARMYWORM Day 3 ([1]; 1000 ppm): 9 (100% kill)
- ARMYWORM Day 5 ([1]; 1000 ppm): 9 (100% kill)
- OP-RESISTANT MITES Adult [2, 5]: 9 (100% kill)
- OP-RESISTANT MITES Egg [2, 9]: 9 (100% kill)
- OP-RESISTANT MITES Adult [2, 10]: 9 (100% kill)
- OP-RESISTANT MITES Egg [2, 11]: 9 (100% kill)
- OP-RESISTANT MITES Adult [2, 12]: 9 (100% kill)
- OP-RESISTANT MITES Egg [2, 7]: 0
- OP-RESISTANT MITES Nymph [2, 8]: 0
- ARMYWORM Stem Sys [3]: 0
- APHIDS ([4]; rating scale 0-9): 0

SMILES: CN=C(NC)SCn1c(Cl)c(Cl)c(C#N)c1-c1ccc(Cl)c(Cl)c1 [Example 15]
- ARMYWORM Day 3 ([1]; 10 ppm): 9 (100% kill)
- ARMYWORM Day 5 ([1]; 10 ppm): 9 (100% kill)
- ARMYWORM Day 3 ([1]; 100 ppm): 9 (100% kill)
- ARMYWORM Day 5 ([1]; 100 ppm): 9 (100% kill)
- ARMYWORM Day 3 ([1]; 1000 ppm): 9 (100% kill)
- ARMYWORM Day 5 ([1]; 1000 ppm): 9 (100% kill)
- OP-RESISTANT MITES Adult [2, 12]: 0
- OP-RESISTANT MITES Egg [2, 7]: 0
- OP-RESISTANT MITES Nymph [2, 8]: 0
- ARMYWORM Stem Sys [3]: 0
- APHIDS ([4]; rating scale 0-9): 0

SMILES: N#Cc1c(Br)c(C(F)(F)F)n(CSC2=NCCS2)c1-c1ccc(Cl)cc1 [Example 16]
- ARMYWORM Day 3 ([1]; 10 ppm): 9 (100% kill)
- ARMYWORM Day 5 ([1]; 10 ppm): 9 (100% kill)
- ARMYWORM Day 3 ([1]; 100 ppm): 9 (100% kill)
- ARMYWORM Day 5 ([1]; 100 ppm): 9 (100% kill)
- ARMYWORM Day 3 ([1]; 1000 ppm): 9 (100% kill)
- ARMYWORM Day 5 ([1]; 1000 ppm): 9 (100% kill)
- OP-RESISTANT MITES Adult [2, 12]: 0
- OP-RESISTANT MITES Egg [2, 7]: 0
- OP-RESISTANT MITES Nymph [2, 8]: 0
- ARMYWORM Stem Sys [3]: 4 (46-55% kill)
- APHIDS ([4]; rating scale 0-9): 8 (86-99% kill)

SMILES: FC(F)(F)c1c(Br)c(-c2ccc(Cl)c(Cl)c2)n(CSC2=NCCCN2)c1C(F)(F)F [Example 17]
- ARMYWORM Day 3 ([1]; 10 ppm): 9 (100% kill)
- ARMYWORM Day 5 ([1]; 10 ppm): 9 (100% kill)
- ARMYWORM Day 3 ([1]; 100 ppm): 9 (100% kill)
- ARMYWORM Day 5 ([1]; 100 ppm): 9 (100% kill)
- ARMYWORM Day 3 ([1]; 1000 ppm): 9 (100% kill)
- ARMYWORM Day 5 ([1]; 1000 ppm): 9 (100% kill)
- OP-RESISTANT MITES Adult [2, 5]: 0
- OP-RESISTANT MITES Egg [2, 9]: 0
- OP-RESISTANT MITES Nymph [2, 6]: 0
- OP-RESISTANT MITES Adult [2, 10]: 0
- OP-RESISTANT MITES Egg [2, 11]: 7 (76-85% kill)
- OP-RESISTANT MITES Nymph ([2]; 100 ppm, mite nymphs, rating scale 0-9): 0
- OP-RESISTANT MITES Adult [2, 12]: 7 (76-85% kill)
- OP-RESISTANT MITES Egg [2, 7]: 0
- OP-RESISTANT MITES Nymph [2, 8]: 0
- ARMYWORM Stem Sys [3]: 0
- APHIDS ([4]; rating scale 0-9): 0
